Laboratory results taken from publication PMC8839658, “Design and Activity of Novel Oxadiazole Based Compounds That Target Poly(ADP-ribose) Polymerase” (Molecules, 2022).
Where two headings read alike, the source gives them in different places.

Experiments:
[1] = test system: MDA-MB-231 cells; assay: MDA-MB-231 cell viability assay (Alamar Blue); assay type: cell-based, human; settings: MDA-MB-231, 72 h
Experimental: (§1) Initially, the newly synthesized oxadiazoles were examined in cell viability studies in human breast cancer (MCF-7) cells using Alamar Blue assays.
(§2) MCF-7 and MDA-MB-231 (2000) cells were cultured in MEM or Leibovitz’s L-15 medium enriched with 2% FBS and maintained in a humidified atmosphere of 5% CO2 at 37 °C [44]. DMSO dissolved compounds were kept as a stock solution, and diluted with a cell culture medium to the desired concentration. Cancer cells (4 × 10^3) were grown overnight in 96-well plates, cultured, and treated with oxadiazoles or Olaparib at 0, 0.01, 0.1, 10, 100, and 1000 µM concentrations for 72 h. The inhibitory effect of the compounds was assessed using Alamar Blue reagent.
(§3) MCF-7 and MDA-MB-231 were treated with 5u, 5s and Olaparib (0, 0.01, 0.1, 1, 10, 100 µM) for 72 h, respectively. The viability of MCF-7 (A) and MDA-MB-231 cells (B) were analyzed using a microplate reader to measure the fluorescence of Alamar Blue reagent (excitation wavelength is between 530–560 nm and emission wavelength is 590 nm). The results are means of triplicate determinations.

[2] = test system: MCF-7 cells; assay: Western blot, p-H2AX (Ser139) in MCF-7 cells; assay type: cell-based, human; settings: MCF-7, 1 or 10 µM, 60 h
Experimental: (§4) Western blot analysis was performed to determine the levels of PARP1 cleavage and p-H2AX in MCF-7 and MDA-MB-231 cells using previously reported methods. Cells at 50–60% confluence were treated with compounds and incubated for 60 h in 2% FBS. MCF-7 and MDA-MB-231 cells were also treated with Olaparib, 5u, or 5s and the levels of cleaved PARP1 and p-H2A-X were determined using the respective antibodies.
(§5) Figure 4 The effect of compounds 5u, 5s, and Olaparib on PARP1 cleavage (upper panel of A,B) phosphorylation of H2A-X (Ser139) (lower panel of A,B), and CASPASE-3 activity (C,D) in MCF-7 and MDA-MB-231 cells. Cancer cells were treated with or without compounds 5u, 5s,and Olaparib (1 or 10 µM). The protein levels after treatment were observed by western blot analysis. GAPDH was used as input control. The data are expressed as mean ± SEM. ** p ≤ 0.01; *** p ≤ 0.001.

[3] = test system: MCF-7 cells; assay: Western blot, PARP1 cleavage in MCF-7 cells; assay type: cell-based, human; settings: MCF-7, 1 or 10 µM, 60 h
Experimental: as §4, §5

[4] = test system: MCF-7 cells; assay: MCF-7 cell viability assay (Alamar Blue); assay type: cell-based, human
Experimental: as §1, §2, §3

[5] = test system: MDA-MB-231 cells; assay: Western blot, p-H2AX (Ser139) in MDA-MB-231 cells; assay type: cell-based, human; settings: MDA-MB-231, 1 or 10 µM, 60 h
Experimental: as §4, §5

[6] = test system: MDA-MB-231 cells; assay: 3D Matrigel growth, MDA-MB-231 cells; assay type: cell-based, human; settings: MDA-MB-231, 4% Matrigel, 1 or 10 µM, Alamar Blue
Experimental: (§6) Cells were grown in a medium containing 4% Matrigel. Cells were treated with vehicles or compounds 5s, 5u, or Olaprib (1 or 10 µM), after colonies had formed. Compounds were added into the culture medium every 3 days for a total of 2 cycles. Alamar Blue assay was used for quantification of live cells. The data are expressed as mean ± SEM. * p ≤ 0.05; ** p ≤ 0.01; *** p ≤ 0.001.

[7] = test system: MCF-7 cells; assay: 3D Matrigel growth, MCF-7 cells; assay type: cell-based, human; settings: MCF-7, 4% Matrigel, 1 or 10 µM, Alamar Blue
Experimental: as §6

[8] = molecular target: T1, recombinant human PARP enzyme (PARP1) (Homo sapiens, UniProt P09874); assay: PARP activity, PARP/Apoptosis Universal Colorimetric Assay Kit; assay type: biochemical; settings: n = 3
T1 construct: purchased R&D Systems Ltd., Abingdon, UK 4677-096-K
Experimental: PARP activity was measured using the PARP/Apoptosis Universal Colorimetric Assay Kit (4677-096-K, R&D Systems Ltd., Abingdon, UK). The enzyme inhibition assay uses the histone proteins immobilized 96-well plate, which measures the incorporation of ADP-ribose (biotin-tagged), followed by detection using streptavidin-conjugated horse-radish peroxidase, and finally the color development after the addition of substrate. Oxadiazoles were incubated with the recombinant human PARP enzyme prior to detection.

[9] = test system: MDA-MB-231 cells; assay: Western blot, PARP1 cleavage in MDA-MB-231 cells; assay type: cell-based, human; settings: MDA-MB-231, 1 or 10 µM, 60 h
Experimental: as §4, §5

[10] = test system: MDA-MB-231 cells; assay: Foci formation assay, MDA-MB-231 cells; assay type: cell-based, human; settings: MDA-MB-231, crystal violet
Experimental: (§7) MCF-7 and MDA-MB-231 cells were plated in six-well plates in 2 mL media with or without compounds and cultured. When foci had formed, MCF-7 and MDA-MB-231 cells were washed with PBS and fixed with ice-cold methanol for 10 min at 4°C. Methanol was removed and crystal violet solution was used to stain foci at room temperature for 10 min. The resultant solution was removed; immobilized MCF-7 and MDA-MB-231 cells were rinsed with distilled water and dried at room temperature.
(§8) Figure 5 Compounds 5u, 5s, and Olaparib inhibited the foci formation of MCF-7 (left panel of A) and MDA-MB-231 (left panel of B) cells. Visualization of foci formed was achieved by use of Crystal Violet. Inhibition of foci formation was also quantified (right panels of both A,B) The data are expressed as mean ± SEM. * p ≤ 0.05; ** p ≤ 0.01; *** p ≤ 0.001.

[11] = test system: MCF-7 cells; assay: Foci formation assay, MCF-7 cells; assay type: cell-based, human; settings: MCF-7, crystal violet
Experimental: as §7, §8

[12] = test system: PARP1; settings: read-out: IC50, PARP1 activity; cited from earlier work
[13] = test system: PARP1; settings: read-out: cellular EC50; cited from earlier work
[14] = molecular target: autophagy activating kinase 1 (ULK1); design: method as in PMID 32967366; settings: cited from earlier work
[15] = Homo sapiens, Alamar Blue, Figure 2B, read-out: Log IC50, MDA-MB-231 (converted)
[16] = Homo sapiens, Alamar Blue, read-out: IC50, cell viability of MDA-MB-231 cells
[17] = Alamar Blue, read-out: IC50, cell viability of MDA-MB-231 cells
[18] = Homo sapiens, MCF7, 72 h, MCF-7, 72 h, Alamar Blue, Figure 2A, read-out: Log IC50, MCF-7 (converted)
[19] = Homo sapiens, MCF7, 72 h, MCF-7, 72 h, Alamar Blue, read-out: IC50, cell viability of MCF-7 cells
[20] = MCF-7, 72 h, Alamar Blue, read-out: IC50, cell viability of MCF-7 cells

T1 sequence (P09874 whole entry): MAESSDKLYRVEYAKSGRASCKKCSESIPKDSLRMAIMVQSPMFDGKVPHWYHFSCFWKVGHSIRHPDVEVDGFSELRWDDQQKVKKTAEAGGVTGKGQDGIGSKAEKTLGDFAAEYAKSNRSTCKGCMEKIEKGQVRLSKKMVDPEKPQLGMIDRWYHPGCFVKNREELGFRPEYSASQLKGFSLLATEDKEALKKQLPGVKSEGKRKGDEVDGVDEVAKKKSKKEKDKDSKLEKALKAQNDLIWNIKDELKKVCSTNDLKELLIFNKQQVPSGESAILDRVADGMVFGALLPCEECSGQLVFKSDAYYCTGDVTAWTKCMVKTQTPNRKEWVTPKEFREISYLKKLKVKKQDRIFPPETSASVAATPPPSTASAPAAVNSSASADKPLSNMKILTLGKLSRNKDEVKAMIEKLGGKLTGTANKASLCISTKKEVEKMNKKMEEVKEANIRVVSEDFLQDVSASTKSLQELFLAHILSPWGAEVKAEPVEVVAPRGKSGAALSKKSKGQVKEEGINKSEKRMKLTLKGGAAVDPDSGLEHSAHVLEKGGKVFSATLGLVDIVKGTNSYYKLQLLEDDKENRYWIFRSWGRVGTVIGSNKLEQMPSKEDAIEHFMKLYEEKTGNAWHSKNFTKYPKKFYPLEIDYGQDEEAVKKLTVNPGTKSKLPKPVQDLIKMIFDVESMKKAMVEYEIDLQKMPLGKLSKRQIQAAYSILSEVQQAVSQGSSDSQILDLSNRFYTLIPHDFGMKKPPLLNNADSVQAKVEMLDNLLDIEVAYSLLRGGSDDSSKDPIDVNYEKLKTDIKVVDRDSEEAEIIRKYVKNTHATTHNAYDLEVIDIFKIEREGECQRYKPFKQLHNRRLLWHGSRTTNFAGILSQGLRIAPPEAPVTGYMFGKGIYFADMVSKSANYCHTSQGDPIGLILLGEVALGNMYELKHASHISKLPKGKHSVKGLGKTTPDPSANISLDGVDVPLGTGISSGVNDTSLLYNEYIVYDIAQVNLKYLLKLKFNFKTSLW

Row | IC50 [1, 15] [µM] | IC50 [1, 16] [µM] | IC50 [1, 17] [µM] | IC50 [4, 18] [µM] | IC50 [4, 19] [µM] | IC50 [4, 20] [µM] | inhibition at 0.01 µM [8] [%] | inhibition at 0.1 µM [8] [%] | inhibition at 1 µM [8] [%] | inhibition at 10 µM [8] [%] | inhibition at 100 µM [8] [%] | SMILES | level of p-H2AX [2] | PARP1 cleavage [3] | level of p-H2AX [5] | 3D growth in Matrigel [6] | 3D growth in Matrigel [7] | PARP1 cleavage [9] | foci formation [10] | foci formation [11] | also measured
1 | 19.1 | 19.2 | 19.2 | 15.5 | 15.3 | 15.3 | 2.38 | 10.6 | 21.3 | 65 | 76.5 | COc1ccc(Cc2nnc(-c3cccc(-c4ccnc(F)c4C)c3)o2)cc1OC [compound 5s, 2-(3,4-Dimethoxybenzyl)-5-(3-(2-fluoro-3-methylpyridin-4-yl)phenyl)-1,3,4-oxadiazole] | equivalent increases in the level of p-H2AX | Equivalent levels of cleaved PARP1 | equivalent increases in the level of p-H2AX | roughly equivalent efficacy to Olaparib | roughly equivalent efficacy to Olaparib | Equivalent levels of cleaved PARP1 | decreased in a dose-dependent manner | decreased in a dose-dependent manner | –
2 | – | – | – | – | – | – | – | – | – | – | – | NC(=O)c1cccc2[nH]c(-c3ccc(-c4nnco4)cc3)nc12 [compound 1] | – | – | – | – | – | – | – | – | IC50 [12]: 1 nM; EC50 [13]: 3.7 nM
3 | – | – | – | – | – | – | – | – | – | – | – | O=C(c1cc(Cc2n[nH]c(=O)c3ccccc23)ccc1F)N1CCN(C(=O)C2CC2)CC1 [Olaparib, reference compound] | equivalent increases in the level of p-H2AX | Equivalent levels of cleaved PARP1 | equivalent increases in the level of p-H2AX | inhibited the growth | inhibited the growth | Equivalent levels of cleaved PARP1 | decreased in a dose-dependent manner | decreased in a dose-dependent manner | IC50 ([1]; Homo sapiens, read-out: IC50, cell viability of MDA-MB-231 cells): 70.2 µM; IC50 ([1]; Homo sapiens, read-out: IC50, cell viability of MDA-MB-231 cells, MDA-MB-231, 72 h, Alamar Blue): 70.2 µM; IC50 ([1]; Homo sapiens, read-out: Log IC50, MDA-MB-231 (converted)): 70.8 µM; IC50 ([4]; Homo sapiens, MCF7, 72 h, read-out: Log IC50, MCF-7, MCF-7, 72 h, Alamar Blue (converted), Figure 2A): 3.31 µM; IC50 ([4]; read-out: IC50, cell viability of MCF-7 cells, MCF-7, 72 h, Alamar Blue): 3.2 µM
4 | – | – | – | – | – | – | – | – | – | – | – | FC(F)(F)c1cnc(Nc2ccc3c(c2)OCCO3)nc1NC1CC1 [compound 2] | – | – | – | – | – | – | – | – | IC50 [14]: 14 nM
5 | 29.5 | 29.3 | 29.3 | 1.45 | 1.45 | 1.4 | 4.82 | 6.84 | 45.4 | 54.2 | 82.2 | COc1ccc(Cc2nnc(-c3cccc(-c4cccc(C=O)c4)c3)o2)cc1 [compound 5u, 3′-(5-(4-Methoxybenzyl)-1,3,4-oxadiazol-2-yl)-[1,1′-biphenyl]-3-carbaldehyde] | equivalent increases in the level of p-H2AX | Equivalent levels of cleaved PARP1 | equivalent increases in the level of p-H2AX | roughly equivalent efficacy to Olaparib | roughly equivalent efficacy to Olaparib | Equivalent levels of cleaved PARP1 | decreased in a dose-dependent manner | decreased in a dose-dependent manner | –
